From PubChem BioAssay AID179 (DTP/NCI, 2004)
Activity calls are given as the source filed them.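 The calls were made as follows: active = compounds giving half or more protection of infected cells from virus-caused growth loss, again on retest; inactive = the rest.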

Test system: CEM cells HIV-1 protection, formazan growth assay
Assay: NCI AIDS Antiviral Assay
Conditions: for IC50: measured here: growth of uninfected CEM cells
Procedure, shortened: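 Category rules: moderately active means at least 50% protection on retest, and confirmed active means 100% protection reproducibly. The underlying data came from a formazan growth assay in HIV-1-infected CEM cells.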

| SMILES | EC50 | IC50 | outcome |
| --- | --- | --- | --- |
| CC1(C)CNC(=O)C2(CCCO2)CNC(C)(C)CNC(=O)C2(CCCO2)CN1 (stereo not given) | > 126 µM | > 126 µM | – |
| C[N+]1([O-])C2CCC1CC(OC(=O)C(CO)c1ccccc1)C2 (stereo not given) | > 200 µM | > 200 µM | – |
| COC(=O)CSc1n[nH]c(-c2ccccc2)n1 | > 1000 µM | 372 µM | – |
| Cc1cc(N=Nc2ccc(Sc3ccc(N=Nc4ccc(O)c(C(=O)O)c4)cc3)cc2)c(N)c(N=Nc2ccc(N=Nc3ccc(S(=O)(=O)O)cc3)cc2)c1N | 5.62 µM | > 100 µM | – |
| COc1ccc2c(c1)CCc1c-2[nH]c2ccc(OC)cc12 | > 200 µM | > 200 µM | – |
| O=C1Nc2ccccc2/C1=N\[O-].O=C1Nc2ccccc2/C1=N\[O-].[Cu+2] | > 200 µM | > 200 µM | – |
| CCCC(NCCNC(CCC)C(=O)O)C(=O)O (stereo not given) | > 589 µM | > 589 µM | – |
| Cc1ccc(OP2(=O)Nc3ccccc3S2)cc1 (stereo not given) | > 468 µM | 25.7 µM | – |
| C(#C[C@@]12CCC[C@@H]1NCO2)c1ccc2c(c1)OCO2 | > 200 µM | 50.1 µM | – |
| CN(C(=O)C12C3(C(=O)C(C)(C)C)C4C5(C#N)C3C1(C(=O)C(C)(C)C)C5C42C(=O)C(C)(C)C)C(C)(C)C (stereo not given) | > 52.5 µM | > 52.5 µM | – |
| N/N=C1\C(=O)N(c2ccc(Cl)c(Cl)c2)C(=O)C1C(=O)Nc1ccc(Cl)c(Cl)c1 (stereo not given) | > 1.2 µM | > 1.2 µM | – |
| CC(C)(C)C1CCC(O)(c2ccccc2)CC1 (stereo not given) | > 42.7 µM | > 42.7 µM | – |
| CC(=O)/C(=C/c1ccc(Cl)cc1)C(=O)c1ccccc1 | > 66.1 µM | 11.7 µM | – |
| O=C1OCCC1(Br)C(Br)c1ccccc1 (stereo not given) | > 200 µM | 6.03 µM | – |
| CN(C)CCC1(c2ccccc2)C=Cc2ccccc21 (stereo not given) | > 200 µM | 107 µM | – |
| Cn1ncc2c(N(N)CCO)nc(-c3ccc([N+](=O)[O-])o3)nc21 | > 200 µM | 10.7 µM | – |
| CC1(N2CCOCC2)CC2C(=[N+]1[O-])CCC/C2=N/O (stereo not given) | > 200 µM | > 200 µM | – |
| CCC12C=CCN(CCc3c([nH]c4ccccc34)/C=C\1)C2 (stereo not given) | > 295 µM | > 295 µM | – |
| COc1ccc(OC(C)C(=O)O)c2c(=O)ccccc12 (stereo not given) | – | – | inactive |
| C=C(CCCC(C)OCOCCOC)[Si](C)(C)C (stereo not given) | > 95.5 µM | > 95.5 µM | – |
| Cc1ccccc1NC(=O)CC1C(=O)Nc2ccccc2S1=O (stereo not given) | > 21.9 µM | > 21.9 µM | – |
| O=C(Nc1ccc(Cl)c(Cl)c1)OCn1ncc2ccc([N+](=O)[O-])cc21 | > 200 µM | 132 µM | – |
| O=C(O)CCSCCCCCCCCCCCCSCCC(=O)O | > 91.2 µM | > 91.2 µM | – |

| SMILES | EC50 | IC50 | outcome |
| --- | --- | --- | --- |
| CCN(c1ccccc1)c1cc(=O)nc2ccccn12 | > 200 µM | > 200 µM | – |
| CCOc1ccc(N=Cc2ccnc3ccccc23)cc1 | – | – | inactive |
| N#CC12C3C4C5C3C1C(C42)n1c(=O)n(-c2ccccc2)c(=O)n15 (stereo not given) | > 200 µM | > 200 µM | – |
| CCOC(=O)[C]1([Bi]([CH3])[CH3])N=NC(C(=O)OC)=C1C(=O)OC (stereo not given) | 17.4 µM | 26.3 µM | – |
| CN(C)c1nc(Cl)c2c(-c3ccccc3)c(-c3ccccc3)oc2n1 | – | – | inactive |
| c1ccc2c(c1)nc1n2C2CCC(C2)N1 (stereo not given) | > 200 µM | > 200 µM | – |
| CNC(=O)N1N[C@H](c2ccccc2)[C@@H]1c1ccccc1 | > 200 µM | 42.7 µM | – |
| COc1cc(-c2ccc(NC(=O)SCCC(=O)O)cc2OC)ccc1NC(=O)SCCC(=O)O | – | – | inactive |
| Clc1ccc(C2=C(c3ccccc3)C(c3ccc(Cl)cc3)N3C(=N[C@H]4CCCC[C@@H]43)N2)cc1 (stereo not given in full) | > 200 µM | 20.9 µM | – |
| Cc1ccc(S(=O)(=O)N=C2C=C(C(C)(C)C)C(=O)C(C(C)(C)C)=C2)cc1 | > 36.3 µM | > 36.3 µM | – |
| Cc1c2ccc(Cl)cc2nc2ccc(OCCCCCCNC(=O)[C@@H](N)CCCN=C(N)N)cc12 | > 100 µM | 15.5 µM | – |
| Cc1cc(NS(=O)(=O)c2ccc(NC(=O)c3ccc4nc5ccccc5c(Nc5ccc(S(=O)(=O)N=C(N)N)cc5)c4c3)cc2)no1 | > 75.9 µM | 24.5 µM | – |
| CCOC(=O)N1CCC(=O)C[C@@H]1C/C=C/P1(=O)O[C@H](c2ccccc2)C(C)N1C(C)C (stereo not given in full) | – | – | inactive |
| Nc1ccc2oc3cccc(N)c3c(=O)c2c1 | > 22.9 µM | > 22.9 µM | – |
| COC(=O)[C@]1(C)CCC[C@]2(C)c3cc(Br)c(C(C)C)cc3CC[C@H]12 | > 100 µM | > 100 µM | – |
| c1ccc(C2Nc3ccccc3C3OCCCC23)cc1 (stereo not given) | > 70.8 µM | > 70.8 µM | – |
| CN(C)CC1CN=C(NC(=O)Nc2ccccc2)O1 (stereo not given) | > 200 µM | > 200 µM | – |
| COc1cc(COC(=O)N[C@H](C(=O)O)C(C)(C)C)c([N+](=O)[O-])cc1OC | > 676 µM | > 676 µM | – |
| CCOC(=O)C(NC(=O)CC)(Nc1ccc(S(=O)(=O)Nc2ccc(OC)nn2)cc1)C(F)(F)F (stereo not given) | > 200 µM | > 200 µM | – |
| COP(=O)(OC)/C(C#N)=C/c1ccco1 | > 1100 µM | 832 µM | – |
| O=C1CC(c2ccccc2)n2c(nc3ccccc32)N1 (stereo not given) | > 151 µM | 67.6 µM | – |
| [N-]=[N+]=CC(=O)OC1Cc2ccccc2C1 | 182 µM | > 200 µM | – |
